Columns and labels:
Format in all cases: cell-based, human
End1/E6E7 cells [1] = assay: Western blot analysis of protein expression and phosphorylation
Description: (§1) To analyze protein expression related to the development of endometriosis following fraxetin treatment, the inventors conducted western blot analysis.
(§2) Briefly, endometrial cells were treated with fraxetin in a dose-dependent manner or in combination with signaling pathway inhibitors. Total proteins were extracted from the treated cells, and protein quantification was performed using the Bradford protein assay (Bio-Rad, Hercules, CA, USA). The extracted proteins were then denatured at 95° C. for 5 minutes and subjected to electrophoresis on a 10% SDS/PAGE gel before being transferred to a nitrocellulose membrane. The membrane was subsequently incubated with primary and secondary antibodies, and target protein expression was analyzed using chemiluminescence detection reagents (Supersignal West Pico, Pierce, Rockford, IL, USA) with the ChemiDoc EQ system and Quantity One software (Bio-Rad).

VK2/E6E7 cells [2] = assay: as above
Description: as §1, §2

End1/E6E7 cells [3] = assay: Mitochondrial calcium concentration (rhod-2 staining)
Description: (§3) To examine intracellular or mitochondrial calcium concentration changes in endometrial cells induced by fraxetin, the inventors conducted experiments using 3 μM fluo-4 acetoxymethyl ester (AM) (Invitrogen) and 3 μM rhod-2.
(§4) First, cells were cultured in 6-well plates, treated with fraxetin in a dose-dependent manner (0 μM, 5 μM, 10 μM, 20 μM, 50 μM, 100 μM), and incubated at 37° C. in a 5% CO2 incubator for 48 hours. The cells were then detached using trypsin, washed with PBS, and stained with 3 μM fluo-4 or 3 μM rhod-2 for 20 minutes at 37° C. in a 5% CO2 incubator. After staining, the cells were washed with PBS, transferred to FACS tubes, and analyzed by flow cytometry to measure intracellular or mitochondrial calcium concentrations.

VK2/E6E7 cells [4] = assay: as above
Description: as §3, §4

Q: With `COc1cc2ccc(=O)oc2c(O)c1O` [fraxetin] as the compound, how does the “reduction of S6 phosphorylation” value (End1/E6E7 cells [1]; 20 μM fraxetin, End1/E6E7) read?
A: 59%

Q: What about the ERK1/2 phosphorylation (End1/E6E7 cells [1]; 50 μM fraxetin, End1/E6E7) of the same compound?
A: 0.51 fold

Q: And the “p38 phosphorylation compared to control” value (End1/E6E7 cells [1]; 50 μM fraxetin, first value, End1/E6E7 assumed)?
A: 0.61 fold

Q: What about the IRE1α expression (End1/E6E7 cells [1]; End1/E6E7) of the same compound?
A: 1.7 fold

Q: And the “expression of anti-apoptotic protein Bcl-xL” value (End1/E6E7 cells [1]; End1/E6E7)?
A: reduced

Q: What about the “inhibition of AKT phosphorylation compared to control” value (End1/E6E7 cells [1]; End1/E6E7) of the same compound?
A: 57%

Q: What about the “pro-apoptotic protein BAK” value (End1/E6E7 cells [1]; End1/E6E7) of the same compound?
A: increased

Q: And the “pro-apoptotic protein BAX” value (End1/E6E7 cells [1]; End1/E6E7)?
A: increased

Q: What about the ERK1/2 phosphorylation (VK2/E6E7 cells [2]; 50 μM fraxetin, VK2/E6E7) of the same compound?
A: 0.61 fold

Q: And the “p38 phosphorylation compared to control” value (VK2/E6E7 cells [2]; 50 μM fraxetin, second value, VK2/E6E7 assumed)?
A: 0.47 fold

Q: What about the IRE1α expression (VK2/E6E7 cells [2]; VK2/E6E7) of the same compound?
A: 0.53 fold

Q: And the “expression of anti-apoptotic protein Bcl-xL” value (VK2/E6E7 cells [2]; VK2/E6E7)?
A: reduced

Q: What about the “pro-apoptotic protein BAK” value (VK2/E6E7 cells [2]; VK2/E6E7) of the same compound?
A: increased

Q: What about the “pro-apoptotic protein BAX” value (VK2/E6E7 cells [2]; VK2/E6E7) of the same compound?
A: increased

Q: And the “mitochondrial calcium ion levels” value (End1/E6E7 cells [3]; 20 μM fraxetin, first value, End1/E6E7 assumed)?
A: 1.7 fold

Q: What about the “mitochondrial calcium ion levels” value (End1/E6E7 cells [3]; 50 μM fraxetin) of the same compound?
A: slight increase

Q: And the “mitochondrial calcium ion levels” value (VK2/E6E7 cells [4]; 20 μM fraxetin, second value, VK2/E6E7 assumed)?
A: 2.4 fold

Q: And the “mitochondrial calcium ion levels” value (VK2/E6E7 cells [4]; 50 μM fraxetin)?
A: slight increase

From patent US20250302799A1, “PHARMACEUTICAL COMPOSITION CONTAINING FRAXETIN FOR PREVENTION OR TREATMENT OF ENDOMETRIOSIS” (Research & Business Foundation Sungkyunkwan University, priority 2024, published 2025)
